Where two headings read alike, the source gives them in different places. One block for each compound: values may come before it.
Experiments:
[1] = Stability of analytes in rat plasma (UPLC-MS/MS method validation); format: in vitro ADME; details: n = 5
Description: The sensitivity of the method was reflected by the lower limit of quantification (LLOQ), which was also the lowest quantitative point. The LLOQ and three QC samples were obtained by the same method. […] All chemicals and solutions were stored at −80 °C for further use. Protein precipitation was used to remove proteins from plasma and extract the test materials. […] The mixture was then centrifuged at 13,000 rpm for 10 min at 4 °C to ensure complete protein precipitation. After centrifugation, the supernatant was carefully collected and transferred into a sample vial. Finally, 2.0 µL of sample was injected for UPLC-MS/MS analysis. The calibration curve, selectivity, accuracy, precision, recovery, matrix effect, and stability of the method established in this study were validated according to the FDA Bioanalytical Method Validation Guidance and the guidelines from the National Medical Products Administration (NMPA). Detailed information regarding the evaluation could be found in the Results and Discussion sections.

[2] = In vivo pharmacokinetic interaction study in Sprague-Dawley rats; details: for AUC(0-inf) / AUC(0-t) / Cmax / Tmax / half-life / CL/F: male, Sprague-Dawley, rat, plasma, po, 25 mg/kg, rat plasma, n = 5, mean ± S.D.; for CL/F: read-out: CLz/F (converted)
Description: Protein precipitation was used to remove proteins from plasma and extract the test materials. To this end, 100 µL of plasma sample was combined with 10 µL of the IS working solution (400 ng/mL) and 300 µL of acetonitrile. The mixture was then centrifuged at 13,000 rpm for 10 min at 4 °C to ensure complete protein precipitation. After centrifugation, the supernatant was carefully collected and transferred into a sample vial. Finally, 2.0 µL of sample was injected for UPLC-MS/MS analysis.
The study was approved by Institutional Animal Care and Use Committee of the First Affiliated Hospital of Wenzhou Medical University (Approval No. WYYY-IACUC-AEC-2024-079). The experimental animals were cared in accordance with the Guide for the Care and Use of Laboratory Animals issued by the National Research Council, complying with the ARRIVE guidelines. The 6–8 weeks old Sprague-Dawley rats were obtained from Vital River Laboratory Animal Technology Co., Ltd (China, Zhejiang). The rats were housed at 25 °C and given a 14-day acclimation period under experimental conditions to reduce potential variability.
Due to the similarity between their hepatic enzyme system and humans, SD male rats are widely used in pharmacokinetics ([Riccardi et al., 2018]; [Martignoni, Groothuis & De Kanter, 2006]). A total of 10 SD male rats (200 ± 20 g) were randomly divided into two groups (n = 5): Group A (control group) and Group B (experimental group). The animals were fasted for 12 h prior to the experiment but had free access to water. […] And the concentration of tropifexor was determined to be 20 µg/kg based on body surface area conversion from human administered doses in prior literature ([Chen et al., 2022a]). Experimental group was received of tropifexor (20 µg/kg) via oral gavage, whereas control group was administered of an equivalent volume of corn oil. […] Blood samples were then collected at different time points at 0.5, 1, 1.5, 2, 4, 8, 12, 24, and 48 h after administration. Each blood sample (approximately 0.3 mL) was taken from the caudal veins, and was collected into 1.5 mL heparinized polyethylene tubes. After centrifuged at 13,000 rpm for 10 min, the supernatant was collected and stored at −80 °C. The plasma sample was treated according to 2.4 Pre-treatment of samples before UPLC-MS/MS analysis.
Pharmacokinetic parameters were calculated using the Drug and Statistics (DAS) software (version 3.0 software, Mathematical Pharmacology Professional Committee of China, Shanghai, China) with non-compartment model analyses based on the input data of drug administration route, dosage, drug concentration, and time.

[3] = design: method as in Qiu et al., 2016; details: ref Qiu et al., 2016, cited from earlier work
RLM = test system: RLM; design: method as in Wang et al., 2024; details: read-out: Km of crizotinib, ref Wang et al., 2024; cited from earlier work
in vitro [4] = details: rat, rat liver microsomes, pH 7.4
Description: (§1) Before measurement, the mixture without NADPH was pre-incubated at 37 °C for 5 min. Then, one mM of NADPH was given to incubate the reaction in a water bath with shaking at a rate of 200 times/min. After 30 min, the reaction was terminated by cooling at −80 °C. Next, 300 µL acetonitrile and 10 µL of the IS working solution were added to the mixture. After shaking for 2 min, the supernatant was obtained by centrifugation at 13,000 rpm for 10 min and subjected to UPLC-MS/MS analysis.
(§2) The Km, IC50, the Lineweaver-Burk plot and the mean plasma concentration–time curve were calculated and plotted using GraphPad Prism 9.0 software (GraphPad Software Inc., California, United States).

[5] = design: method as in Johnson et al., 2015; details: humans; ref Johnson et al., 2015; cited from earlier work
[6] = design: method as in Xu et al., 2015; details: compared to a single oral dose of 150 mg crizotinib; ref Xu et al., 2015; cited from earlier work
[7] = design: method as in Ou, 2011; details: humans, single oral dose of 250 mg/d; ref Ou, 2011; cited from earlier work
in vitro [8] = details: human, human liver microsomes, pH 7.4, Km of crizotinib, HLM 0.3 mg/mL, 1 mM NADPH, 0.1–50 µM crizotinib
[9] = cited from earlier work
[10] = design: method as in Chen, Li & Chen, 2022; details: PBPK model, cancer patients; ref Chen, Li & Chen, 2022; cited from earlier work
[11] = test system: rat liver microsomes (RLM); assay: Enzyme kinetics of crizotinib in rat liver microsomes (Michaelis-Menten)
Description: as §1, §2

[12] = design: method as in Badman et al., 2020; details: healthy volunteers, single dose of up to three mg; ref Badman et al., 2020; cited from earlier work
[13] = test system: crizotinib metabolism in rat liver microsomes (RLM); assay: Inhibition of crizotinib metabolism by tropifexor in RLM (IC50, Lineweaver-Burk); format: in vitro ADME
[14] = design: method as in Chen et al., 2022b; details: ref Chen et al., 2022b; cited from earlier work
[15] = target: crizotinib metabolism in human liver microsomes (HLM) (Homo sapiens, UniProt P08684); assay: Inhibition of crizotinib metabolism by tropifexor in HLM (IC50, Lineweaver-Burk); format: in vitro ADME
[16] = group Crizotinib + Tropifexor: oral tropifexor 20 µg/kg 30 min before oral crizotinib 25 mg/kg
[17] = group Crizotinib alone: single oral crizotinib 25 mg/kg
[18] = rats, compared to control group

Sequence of crizotinib metabolism in human liver microsomes (HLM) (P08684 2-503): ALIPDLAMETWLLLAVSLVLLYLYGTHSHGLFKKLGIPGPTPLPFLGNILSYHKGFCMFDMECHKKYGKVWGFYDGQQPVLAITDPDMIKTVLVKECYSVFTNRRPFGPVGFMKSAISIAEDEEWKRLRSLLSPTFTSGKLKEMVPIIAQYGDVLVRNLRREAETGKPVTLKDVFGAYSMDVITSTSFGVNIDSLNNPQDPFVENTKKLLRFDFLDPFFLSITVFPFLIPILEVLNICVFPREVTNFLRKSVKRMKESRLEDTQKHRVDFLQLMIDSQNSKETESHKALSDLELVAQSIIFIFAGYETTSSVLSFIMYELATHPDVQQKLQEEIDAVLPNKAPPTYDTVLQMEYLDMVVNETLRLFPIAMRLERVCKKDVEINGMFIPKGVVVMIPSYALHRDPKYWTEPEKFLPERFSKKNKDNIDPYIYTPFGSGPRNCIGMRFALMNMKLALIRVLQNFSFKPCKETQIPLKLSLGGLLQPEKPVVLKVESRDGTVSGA

Stability RE ([1]; 2 ng/mL, 10 °C (4 h)): 2.2%
Stability RE ([1]; 2 ng/mL, 21 days at −80 °C): 14.7%
Stability RE ([1]; 2 ng/mL, room temperature (3 h)): 9.9%
Stability RE ([1]; 2 ng/mL, three freeze-thaw (−80 °C/RT)): 11.9%
Stability RE ([1]; 40 ng/mL, 10 °C (4 h)): 0.6%
Stability RE ([1]; 40 ng/mL, 21 days at −80 °C): 5.2%
Stability RE ([1]; 40 ng/mL, room temperature (3 h)): 2.0%
Stability RE ([1]; 40 ng/mL, three freeze-thaw (−80 °C/RT)): −0.7%
Stability RE ([1]; 80 ng/mL, 10 °C (4 h)): −0.6%
Stability RE ([1]; 80 ng/mL, 21 days at −80 °C): 5.9%
Stability RE ([1]; 80 ng/mL, room temperature (3 h)): 3.0%
Stability RE ([1]; 80 ng/mL, three freeze-thaw (−80 °C/RT)): −0.7%
AUC(0-inf) [2, 16]: 880 ± 269 ng·h/mL
AUC(0-t) [2, 16]: 877 ± 268 ng·h/mL
Cmax [2, 16]: 74.3 ± 26.8 ng/mL
Tmax [2, 16]: 8.8 ± 1.79 h
half-life [2, 16]: 5.78 ± 1.79 h
CL/F [2, 16]: 507 mL/min/kg
AUC(0-inf) [2, 17]: 605 ± 99.1 ng·h/mL
AUC(0-t) [2, 17]: 603 ± 97.7 ng·h/mL
Cmax [2, 17]: 51 ± 14.4 ng/mL
Tmax [2, 17]: 8 h
half-life [2, 17]: 4.82 ± 1.18 h
CL/F [2, 17]: 704 mL/min/kg
decrease of CLz/F on co-administration of tropifexor [2, 18]: 27.9%
Compound: C[C@@H](Oc1cc(-c2cnn(C3CCNC(=O)C3)c2)cnc1N)c1c(Cl)ccc(F)c1Cl (some centres unmarked) [2-Keto crizotinib]

Km at 30 min (in vitro [4]): 1 µM
Km at 30 min (in vitro [8]): 15 µM
Stability RE ([1]; 5 ng/mL, 10 °C (4 h)): 0.5%
Stability RE ([1]; 5 ng/mL, 21 days at −80 °C): −1.9%
Stability RE ([1]; 5 ng/mL, room temperature (3 h)): −9.0%
Stability RE ([1]; 5 ng/mL, three freeze-thaw (−80 °C/RT)): −8.3%
Stability RE ([1]; 120 ng/mL, 10 °C (4 h)): 5.9%
Stability RE ([1]; 120 ng/mL, 21 days at −80 °C): 4.7%
Stability RE ([1]; 120 ng/mL, room temperature (3 h)): −6.9%
Stability RE ([1]; 120 ng/mL, three freeze-thaw (−80 °C/RT)): −7.1%
Stability RE ([1]; 240 ng/mL, 10 °C (4 h)): 3.6%
Stability RE ([1]; 240 ng/mL, 21 days at −80 °C): 6.9%
Stability RE ([1]; 240 ng/mL, room temperature (3 h)): −1.6%
Stability RE ([1]; 240 ng/mL, three freeze-thaw (−80 °C/RT)): −7.4%
AUC(0-inf) [2, 16]: 5670 ng·h/mL
AUC(0-t) [2, 16]: 5560 ng·h/mL
Cmax [2, 16]: 326 ± 41 ng/mL
Tmax [2, 16]: 8.8 ± 1.79 h
half-life [2, 16]: 8.23 ± 1.65 h
CL/F [2, 16]: 76 mL/min/kg
AUC(0-inf) [2, 17]: 4140 ng·h/mL
AUC(0-t) [2, 17]: 4100 ng·h/mL
Cmax [2, 17]: 237 ± 45.3 ng/mL
Tmax [2, 17]: 8.8 ± 1.79 h
half-life [2, 17]: 6.83 ± 0.77 h
CL/F [2, 17]: 102 mL/min/kg
increase of AUC(0−t) on co-administration of tropifexor [2, 18]: 35.7%
increase of AUC(0−∞) on co-administration of tropifexor [2, 18]: 36.9%
Vmax [11]: 0.01457 pmol/min/µg protein
Compound: C[C@@H](Oc1cc(-c2cnn(C3CCNCC3)c2)cnc1N)c1c(Cl)ccc(F)c1Cl [crizotinib, Crizotinib]
Cmax ([3]; SD rats, oral 24 mg/kg): 309 ± 39.8 ng/mL
Tmax ([3]; SD rats, oral 24 mg/kg): 2.00 ± 0.00 h
oral absolute bioavailability ([3]; rats): 68.6 ± 9.63%
Km (RLM): 4.61 ± 0.28 µM
drug excreted unchanged in the feces [5]: approximately 63%
increase in AUC on co-administration with ketoconazole [6]: 2.2 fold
time at which Cmax was observed [7]: 4 h
likelihood of crizotinib-induced hepatotoxicity, patients with pre-existing liver conditions vs without liver disease ([9]; ref Jung et al., 2018): 2.3 times
patients with elevated alanine aminotransferase (ALT) levels ([9]; standard dose of crizotinib, ref Kazandjian et al., 2014): 17%
patients with Grade 1 or 2 liver abnormalities ([9]; typically within two months of treatment, reversible, ref Revol et al., 2020): 30%
predicted increase of AUC when co-administered with fluconazole [10]: 58%
predicted increase of AUC when co-administered with itraconazole [10]: 79%
predicted increase of AUC when co-administered with voriconazole [10]: 84%

Compound: O=C(O)c1cc(F)c2nc(N3[C@@H]4CC[C@H]3C[C@@H](OCc3c(-c5ccccc5OC(F)(F)F)noc3C3CC3)C4)sc2c1 [tropifexor, Tropifexor]
safety and tolerability [12]: safe and well-tolerated
inhibition mechanism on crizotinib metabolism [13]: non-competitive and uncompetitive
α [13]: 0.66
Ki ([13]; n = 3): 5.6 µM
αKi ([13]; n = 3): 3.72 µM
IC50 ([13]; read-out: IC50 of tropifexor on crizotinib metabolism, crizotinib at Km): 4.43 µM
decrease in Cmax on co-administration with a CYP3A4 inhibitor [14]: 9%
decrease in Cmax on co-administration with the CYP3A4 inducer rifampin [14]: 55%
inhibition mechanism on crizotinib metabolism [15]: competitive and non-competitive
α [15]: 2.71
IC50 at 0.5 h ([15]; human, liver microsomes, pH 7.4, IC50 of tropifexor on crizotinib metabolism, crizotinib at Km): 4.3 µM
Ki at 0.5 h ([15]; human, liver microsomes, pH 7.4, n = 3): 4.93 µM
αKi ([15]; n = 3): 13.38 µM

— paper PMC12553364 (PeerJ, 2025)
